“Also recorded” adds a separate entry of the source.
Columns and labels:
[1] = tested on: endogenous retinal stem cell populations; experiment: Endogenous retinal stem cell proliferation after intraocular MS-818, BrdU immunostaining; format: in vivo; conditions: rat; intraocular (vitreous cavity) 10 μg/20 μl, one time injection; after three days
[2] = tested on: endogenous neural stem cell populations in the brain; experiment: Endogenous stem cell proliferation in aged rat brain after MS-818 i.p., BrdU immunostaining; format: in vivo; conditions: 3 mg/kg/day i.p. for 5 days
Procedure: To investigate the effect of MS-818, a pyrimidine derivative, on stem cell population in vivo, MS-818 (3 mg/kg/day, i.p.) was injected for 5 days into aged (27-month old) male Fisher 344 rats. The same volume of saline was injected into control animals. Bromodeoxyuridine (BrdU) (100 mg/kg/day i.p.) was then injected for 3 days. Twenty-four hours after the last injection, the brains were removed and fixed for immunohistochemical detection of the proliferating cells by immunostaining for BrdU.

CC1Nc2nc(N3CCCCC3)ncc2C1=O.O=C(O)/C=C\C(=O)O (stereo not shown) [MS-818, 2-piperadino-6-methyl-5-oxo-5,6-dihydro(7H) pyrrolo[2,3-d]pyrimidine maleate]
number of BrdU-positive cells in retina / retinal ciliary marginal zone [1]: dramatic increase; also recorded: clearly increased | proliferation and migration of stem cells in the subventricular zone [2]: significant increase not only in the proliferation but also in the migration of stem cells | number of BrdU positive cells in SVZ (immunohistochemistry) ([2]; vs control without MS-818): increased | number of BrdU positive cells in cerebral cortex (immunohistochemistry) ([2]; vs control without MS-818): significantly increased
